Where a SMILES comes first, the peptide text is derived from it. Bridges are numbered along the chain shown (N, C = ends).
How the values were obtained:
KV4.1/P282T mutant = assay: Whole-cell patch clamp, KV4.1/P282T in CHO-K1 cells; format: cell-based, mouse
Protocol: (§1) The cDNA of hKV1.1, hKV1.3, rKV1.4, hKV1.5, rKV2.1, hKV3.1–3.4, mKV4.1, rKV4.2, and rKV4.3 were subcloned in the eukaryotic expression vector pCDNA3.1 or pCMV-blank. Channel mutants were made by a site-directed mutation method. Briefly, a pair of oppositely directed primers with 15 bp overlap at their 5′ ends and the designed mutation site were used to amplify the parental channel plasmid, then the PCR mix was treated with DpnI to remove the template. 10 μL digestion mix was directly used to transform 100 μL DH5α chemical competent cells. The correct mutation made by this procedure was finally confirmed by DNA sequencing. CHO-K1 cells (ATCC® CCL-61™) were grown in DMEM-F12 mixed medium (1:1) supplemented with 10% FBS and maintained in standard conditions (saturated humidity, 37°C, 5% CO2). Channel plasmid was co-transfected with pEGFP-N1 (encodes the green fluoresence protein) into CHO-K1 cells using lipofectamine 2000 following the manufacturer’s instructions. 4–6 h after transfection, cells were seeded onto poly-lysine (PLL) coated coverslips, and 24–36 h later, transfected cells were ready for patch-clamp analysis. It should be note that KV4.2 and its mutants were also co-expressed with hKChIP1 to promote their functional expressions.
(§2) Whole-cell patch clamp recording was performed in an electrophysiology platform equipped with MultiClamp 700B amplifier and Axon Digidata 1550 AD/DA convertor (Axon Instruments, Irvine, CA, United States). Data were acquired using the pClamp software (Axon Instruments, Irvine, CA, United States). All experiments were performed at room temperature. The bath solution contains (in mM): 140 NaCl, 5 KCl, 1 MgCl2, 2 CaCl2, 10 glucose, and 10 HEPES (pH = 7.3). The pipette solution contains (in mM): 140 KCl, 2.5 MgCl2, 11 EGTA, and 10 HEPES (pH = 7.3). Series resistance was kept below 10 MΩ and compensated to 80%. The concentration–response curves were fitted by a Hill logistic equation to estimate the potency (IC50) of the toxin. The whole cell conductance (G) at each depolarizing voltage (V) was determined using the equation: G = I/(V−Vrev), where I and Vrev represents the current amplitude and the reversal potential, respectively. In the present study, Vrev for K^+ current is determined to be −85.61 mV using the Nernst equation. G-V curve was obtained by plotting the normalized G as a function of V and fitted by the Boltzmann equation: y = 1/{1 + exp [(Va−V)/K]}, in which Va, V, and K represents half-maximum activation voltage, test voltage and slope factor, respectively. The steady-state fast inactivation of KV4 channels was measured using a classical two-pulses protocol: cell was held at −120 mV, and a train of conditional voltages (−120–40 mV, in 10 mV increment, 1,000 ms) were applied to induce channel inactivation, followed by a +60 mV test pulse (300 ms) to assess the proportion of non-inactivated channels; the sweep interval was set to 10 s. Currents at the test pulse (I) were normalized to the maximum value (Imax) and plotted as a function of the conditional voltage (V), the curve was fitted by the Boltzmann equation: I/Imax = A + (1−A)/{1 + exp [(V−Vh)/K]}, where Vh is the half-maximum inactivation voltage, A represents the minimum channel availability, and K is the slope factor. Gating currents of KV4.1–4.3 channels were measured as previously reported ([Tilley et al., 2019]). Briefly, the ionic pore currents were abolished by replacing K^+ with NMDG^+ in the pipette solution, and 10 µM Cs^+ was present in the bath solution to occupy the selectivity filter of KV channels to prevent decay of the gating currents during recording.
(§3) Data were presented as MEAN ± SEM, n represents the number of separate experimental cells. Data were analyzed using the software Clampfit 10.5 (Axon Instruments, Irvine, CA, United States), Graphpad Prism 5.01 (GraphPad Software, La Jolla, CA, United States) and Excel 2010 (Microsoft Corporation, Redmond, WA, United States). […]

KV4.3/T277P mutant = assay: Whole-cell patch clamp, KV4.3/T277P in CHO-K1 cells; format: cell-based, rat
Protocol: as §1, §2, §3

KV4.1 channel (mKV4.1) = biological target: T1, KV4.1 channel (mKV4.1) (Mus musculus, UniProt Q03719); assay: Whole-cell patch clamp, KV4.1 in CHO-K1 cells; format: cell-based
T1 construct: expressed in transfected cells; host or cells: CHO-K1 (transient, co-transfected with pEGFP-N1)
T1 sequence (Q03719 1-651): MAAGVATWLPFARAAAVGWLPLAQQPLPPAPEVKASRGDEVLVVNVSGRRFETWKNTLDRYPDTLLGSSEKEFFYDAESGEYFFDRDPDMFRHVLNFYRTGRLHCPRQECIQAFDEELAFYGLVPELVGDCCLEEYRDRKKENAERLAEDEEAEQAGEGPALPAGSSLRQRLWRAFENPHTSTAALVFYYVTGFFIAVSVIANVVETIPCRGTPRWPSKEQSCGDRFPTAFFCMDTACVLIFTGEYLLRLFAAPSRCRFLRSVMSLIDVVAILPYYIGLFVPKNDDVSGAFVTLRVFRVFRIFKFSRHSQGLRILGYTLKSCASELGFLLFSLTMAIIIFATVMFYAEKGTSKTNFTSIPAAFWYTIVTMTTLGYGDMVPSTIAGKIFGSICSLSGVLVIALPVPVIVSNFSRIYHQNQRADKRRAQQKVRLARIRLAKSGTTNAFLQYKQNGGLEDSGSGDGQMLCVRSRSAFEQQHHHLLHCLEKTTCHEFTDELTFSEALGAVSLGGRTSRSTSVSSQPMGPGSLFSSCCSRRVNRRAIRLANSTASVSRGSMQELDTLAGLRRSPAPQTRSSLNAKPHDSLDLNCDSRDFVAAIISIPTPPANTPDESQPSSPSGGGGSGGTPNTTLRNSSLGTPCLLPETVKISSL
Protocol: as §1, §2, §3

[1] = test system: KV4.3 channel gating currents; assay: Gating current recording, KV4.3; format: cell-based, rat
Protocol: The cDNA of hKV1.1, hKV1.3, rKV1.4, hKV1.5, rKV2.1, hKV3.1–3.4, mKV4.1, rKV4.2, and rKV4.3 were subcloned in the eukaryotic expression vector pCDNA3.1 or pCMV-blank. Channel mutants were made by a site-directed mutation method. Briefly, a pair of oppositely directed primers with 15 bp overlap at their 5′ ends and the designed mutation site were used to amplify the parental channel plasmid, then the PCR mix was treated with DpnI to remove the template. 10 μL digestion mix was directly used to transform 100 μL DH5α chemical competent cells. The correct mutation made by this procedure was finally confirmed by DNA sequencing. […] 4–6 h after transfection, cells were seeded onto poly-lysine (PLL) coated coverslips, and 24–36 h later, transfected cells were ready for patch-clamp analysis. […]
Whole-cell patch clamp recording was performed in an electrophysiology platform equipped with MultiClamp 700B amplifier and Axon Digidata 1550 AD/DA convertor (Axon Instruments, Irvine, CA, United States). […] The whole cell conductance (G) at each depolarizing voltage (V) was determined using the equation: G = I/(V−Vrev), where I and Vrev represents the current amplitude and the reversal potential, respectively. In the present study, Vrev for K^+ current is determined to be −85.61 mV using the Nernst equation. […] Gating currents of KV4.1–4.3 channels were measured as previously reported ([Tilley et al., 2019]). […]

[2] = 10 μM κ-LhTx-1, G-V, mean ± SEM, n = 6
[3] = 10 μM κ-LhTx-1, two-pulse protocol, mean ± SEM, n = 6
[4] = Va shift by 10 μM κ-LhTx-1 vs control, mean ± SEM
[5] = Vh shift by 10 μM κ-LhTx-1 vs control, mean ± SEM
[6] = 10 μM κ-LhTx-1, KV4.1, two-pulse protocol, mean ± SEM, n = 5

Compound: CC[C@H](C)[C@@H]1NC(=O)[C@H](CCC(N)=O)NC(=O)[C@@H]2CSSC[C@@H]3NC(=O)[C@H](CC(C)C)NC(=O)[C@H](CC(N)=O)NC(=O)[C@H](CCSC)NC(=O)[C@H](Cc4c[nH]c5ccccc45)NC(=O)[C@H](CO)NC(=O)[C@H](C)NC(=O)[C@@H](NC(=O)[C@H](CCC(=O)O)NC(=O)[C@H](CCC(N)=O)NC(=O)[C@H](C)NC(=O)[C@H](CC(=O)O)NC(=O)[C@@H](N)CCC(=O)O)CSSC[C@H](NC(=O)[C@H](CSSC[C@@H](C(=O)N[C@@H](CCCCN)C(=O)N[C@@H](Cc4ccc(O)cc4)C(=O)N[C@@H](CCCCN)C(=O)N[C@@H](CC(C)C)C(N)=O)NC(=O)[C@H](Cc4c[nH]c5ccccc45)NC1=O)NC(=O)[C@H](CCCCN)NC(=O)[C@H](CCCCN)NC(=O)[C@H](CCC(=O)O)NC(=O)CNC3=O)C(=O)N[C@@H](CCC(=O)O)C(=O)NCC(=O)N[C@@H](Cc1ccc(O)cc1)C(=O)N[C@@H](C(C)C)C(=O)N2 [κ-LhTx-1] (H-EDAQECASWMNLCGEKKCCEGYVCQIWCKYKL-NH2; disulfide 6-19, 13-24, 18-28 (inferred); N-terminus and C-terminus assumed)
- Va (steady-state activation) (KV4.1/P282T mutant; [2]): 52.55 ± 1.38 mV
- k, slope factor (steady-state activation) (KV4.1/P282T mutant; [2]): 18.09 ± 0.43 mV
- Vh (steady-state inactivation) (KV4.1/P282T mutant; [3]): -29.12 ± 1.84 mV
- k, slope factor (steady-state inactivation) (KV4.1/P282T mutant; [3]): 10.73 ± 0.41 mV
- ∆Va and inhi%(min) vs wild-type KV4.1 (KV4.1/P282T mutant; 10 μM, close to values of KV4.2/KV4.3): significantly reduced compared with those for KV4.1
- ∆Va (steady-state activation) (KV4.1/P282T mutant; [4]): 52.58 ± 1.86 mV
- ∆Vh (steady-state inactivation) (KV4.1/P282T mutant; [5]): 26.75 ± 2.85 mV
- Va (steady-state activation) (KV4.3/T277P mutant; [2]): 49.17 ± 0.88 mV
- k, slope factor (steady-state activation) (KV4.3/T277P mutant; [2]): 22.21 ± 1.64 mV
- Vh (steady-state inactivation) (KV4.3/T277P mutant; [3]): -35.46 ± 1.68 mV
- k, slope factor (steady-state inactivation) (KV4.3/T277P mutant; [3]): 8.50 ± 0.42 mV
- inhi%(min) vs wild-type KV4.3 (KV4.3/T277P mutant; 10 μM, +100 mV): significantly elevated inhi%(min) value
- ∆Va (steady-state activation) (KV4.3/T277P mutant; [4]): 40.47 ± 2.79 mV
- ∆Vh (steady-state inactivation) (KV4.3/T277P mutant; [5]): 11.63 ± 2.17 mV
- Va (steady-state activation) (KV4.1 channel (mKV4.1); 10 μM κ-LhTx-1, KV4.1, Boltzmann fit of G-V curve, mean ± SEM, n = 5): 95.20 ± 1.68 mV
- k, slope factor (steady-state activation) (KV4.1 channel (mKV4.1); 10 μM κ-LhTx-1, KV4.1, G-V, mean ± SEM, n = 5): 16.14 ± 1.78 mV
- Vh (steady-state inactivation) (KV4.1 channel (mKV4.1); [6]): -32.48 ± 3.44 mV
- k, slope factor (steady-state inactivation) (KV4.1 channel (mKV4.1); [6]): 22.88 ± 0.19 mV
- reversibility of inhibition (KV4.1 channel (mKV4.1); KV4.1): in a reversible manner
- voltage-dependence of inhibition (KV4.1 channel (mKV4.1); KV4.1, 10 µM, inhibition ratio at each depolarizing voltage, n = 5–8): affected by voltage to a much less extent
- I-V: current inhibition below +60 mV (KV4.1 channel (mKV4.1); KV4.1, 10 µM, n = 5–8): fully inhibited the currents at voltages below +60 mV
- I-V: reopening of toxin-bound channels (KV4.1 channel (mKV4.1); KV4.1, 10 µM, strong depolarization, n = 5–8): only depolarizations stronger than +70 mV could partially reopen the toxin-bound channels
- maximum inhibition (KV4.1 channel (mKV4.1); KV4.1, saturating dose 10 μM, +30 mV): fully inhibit
- current inhibition at Va (KV4.1 channel (mKV4.1); KV4.1 at Va depolarizing voltage): almost fully inhibited
- ∆Va (steady-state activation) (KV4.1 channel (mKV4.1); Va shift by 10 μM κ-LhTx-1 vs control, KV4.1, mean ± SEM): 98.28 ± 2.66 mV
- ∆Vh (steady-state inactivation) (KV4.1 channel (mKV4.1); Vh shift by 10 μM κ-LhTx-1 vs control, KV4.1, mean ± SEM): 29.27 ± 2.05 mV
- inhibition of gating charge (Q) movement, 500 nM vs 10 µM ([1]; KV4.3, holding −100 mV, 20 ms to +30 mV, n = 5–6): inhibited essentially the same proportion of gating charge movement
- gating current inhibition ([1]; KV4.3, n = 5–6): inhibited the gating currents
